Columns and labels:
[1] = test system: SkBr3 cells; test: Inhibition of breast cancer cell growth, DAPI nuclei count; type: cell-based; conditions: for inhibition at 1 µM: Homo sapiens; for inhibition at 1 µM / DAPI Nuclei Count: SkBr3 cells, IRX4204 1000 nM
Text: MCF7 is an ER^+ PR^+ Her2^− cell line. SkBr3 is an ER^− PR^− Her2^+ cell line. […] After a further 6 days, the cells were fixed with 4% paraformaldehyde in phosphate buffered saline (PBS). Nuclei were then stained with DAPI and imaged with the MetaXpress® microscope (Molecular Devices, San Jose, CA). Cell nuclei were segmented and then counted by defining pixel intensity over background and object size, using the algorithm of the MetaXpress® image analysis software. […]

[2] = test system: MCF7 cells; test: as above; type: cell-based; conditions: Her2− MCF7 cells; IRX4204 0-1000 nM, trastuzumab 0-10 μg/ml; 6 days
Text: MCF7 is an ER^+ PR^+ Her2^− cell line. SkBr3 is an ER^− PR^− Her2^+ cell line. […] After a further 6 days, the cells were fixed with 4% paraformaldehyde in phosphate buffered saline (PBS). Nuclei were then stained with DAPI and imaged with the MetaXpress® microscope (Molecular Devices, San Jose, CA). Cell nuclei were segmented and then counted by defining pixel intensity over background and object size, using the algorithm of the MetaXpress® image analysis software.
(§1) Additionally the panel of breast cancer cell lines was expanded to also include the ER^+ PR^+ Her2^+ cell line BT474 and the ER^+ PR^− Her2^+ cell line MDA-MB-361.

[3] = test system: BT474 cells; test: as above; type: cell-based; conditions: IRX4204 1000 nM; for inhibition at 1 µM: Homo sapiens
Text: (§2) MCF7 is an ER^+ PR^+ Her2^− cell line. SkBr3 is an ER^− PR^− Her2^+ cell line. […] After a further 6 days, the cells were fixed with 4% paraformaldehyde in phosphate buffered saline (PBS). Nuclei were then stained with DAPI and imaged with the MetaXpress® microscope (Molecular Devices, San Jose, CA). Cell nuclei were segmented and then counted by defining pixel intensity over background and object size, using the algorithm of the MetaXpress® image analysis software. Experimental data points were performed at a minimum of quadruplicate, and results were reported as average cell count ±standard deviation (SD).
(§3) To assess if this improved growth inhibition effect was synergistic, the percent inhibition observed for the highest concentrations of the combined therapeutic agents was compared to the percent inhibition that would be expected for the combination based on the observed inhibition of the therapeutic agents used alone, if the agents acting independently, that is, without interaction (see Table 1). That is, PAE=(FE1+((1−FE1)×FE2))×100, where PAE is the predicted additive effect, FE1 is the observed fractional effect of a 1st treatment, and FE2 is the observed fractional effect of a 2nd treatment.
as §1
(§4) To assess if this improved growth inhibition effect was synergistic, the percent inhibition observed for the highest concentrations of the combined therapeutic agents was compared to the percent inhibition that would be expected for the combination based on the observed inhibition of the therapeutic agents used alone, if the agents acting independently, that is, without interaction (see Tables 2-4).

[4] = test system: MDA-MB-361 cells; test: as above; type: cell-based; conditions: IRX4204 1000 nM; for inhibition at 1 µM: Homo sapiens
Text: as §2, §3, §1, §4

[5] = test system: HCC1954 human breast cancer cells; test: Inhibition of growth of a Her2-targeted agent resistant Her2+ cell line, DAPI nuclei count; type: cell-based; conditions: for resistance of the cell line to the agent used individually: HCC1954, as compared to SkBr3; for growth inhibitory effect (FIGS. 4A-B, 5A-B), in words: HCC1954, 6 days, IRX4204 10, 100 or 1000 nM
Experimental: HCC1954 is Her2^+ cancer cell line derived from a ductal carcinoma of the breast.
HCC1954 human breast cancer cells were seeded at 3000 cells per well in 96-well plates and treated with neratinib [1 or 10 nM] or DMSO (0.1%) in combination with IRX4204 [10, 100, or 1000 nM]. After 6 days of treatment, cells were fixed with 4% paraformaldehyde. Nuclei were stained with DAPI, imaged using ImageXpress® Pico (Molecular Devices) and counted using CellReporterXpress® Analysis Software (FIGS. 4A-B) Each data point represents six replicates. Statistical significance was determined using the Bonferroni-Dunn method of multiple t-tests. Each day was analyzed individually, without assuming a consistent SD (*p<0.01).
The experiment was also conducted using tucatinib or lapatinib in place of neratinib.

[6] = test system: RAR/RXR; test: Activation of non-permissive RXR heterodimers
[7] = test system: Nurr1/RXR heterodimer; test: Activation of permissive RXR heterodimers
[8] = test system: PPAR/RXR; test: Activation of permissive RXR heterodimers
[9] = test system: FXR/RXR; test: Activation of permissive RXR heterodimers
[10] = test system: LXR/RXR; test: Activation of permissive RXR heterodimers
[11] = test system: RXR homodimers; test: Activation of RXR homodimers
[12] = test system: PPAR/RXR, FXR/RXR, or LXR/RXR; conditions: cited from earlier work
[13] = test system: HCC1954; test: IC50 of Her2 kinase inhibitors on Her2-amplified cell lines; type: cell-based; conditions: Homo sapiens
[14] = test system: SkBr3; test: as above; type: cell-based; conditions: Homo sapiens, SK-BR-3
[15] = test system: AU565; test: as above; type: cell-based; conditions: Homo sapiens
[16] = SK-BR-3, lapatinib experiment, Lapatinib 1000 nM
[17] = SK-BR-3, neratinib experiment, Neratinib 1000 nM
[18] = lapatinib experiment, Lapatinib 1000 nM, control 19855
[19] = neratinib experiment, Neratinib 1000 nM, control 6696
[20] = BT-474, lapatinib experiment, Lapatinib 1000 nM
[21] = BT-474, neratinib experiment, Neratinib 1000 nM
[22] = lapatinib experiment, Lapatinib 1000 nM, control 2937
[23] = neratinib experiment, Neratinib 1000 nM, control 2192
[24] = MDA-MB-361 cells, lapatinib experiment, Lapatinib 1000 nM, control 6696
[25] = MDA-MB-361 cells, neratinib experiment, Neratinib 1000 nM, control 5297

SMILES	inhibition at 1 µM [1, 16] [%]	inhibition at 1 µM [1, 17] [%]	DAPI Nuclei Count [1, 18]	DAPI Nuclei Count [1, 19]	inhibition at 1 µM [3, 20] [%]	inhibition at 1 µM [3, 21] [%]	DAPI Nuclei Count [3, 22]	DAPI Nuclei Count [3, 23]	DAPI Nuclei Count [4, 24]	DAPI Nuclei Count [4, 25]	resistance of the cell line to the agent used individually [5]	growth inhibitory effect (FIGS. 4A-B, 5A-B), in words [5]	IC50 [13] [nM]	IC50 [14] [nM]	IC50 [15] [nM]	further results
CC(/C=C/[C@@H]1C[C@]1(C)c1ccc2c(c1)C(C)(C)CCC2(C)C)=C\C(=O)O [IRX4204, 3,7-dimethyl-6(S),7(S)-methano,7-[1,1,4,4-tetramethyl-1,2,3,4-tetrahydron-aphth-7-yl]2(E), 4(E) heptadienoic acid]	4.8	22.1	18906	5218	-15.7	6.8	3399	2043	5218	2459	highly resistant	no growth inhibitory effect				growth inhibitory effect (FIG. 1B), in words ([1]; Her2+ SkBr3 cells, IRX4204 0-1000 nM, trastuzumab 0-10 μg/ml, 6 days): moderate growth inhibitory effect; inhibition at 1 µM ([1]; SK-BR-3, 144 h, 6 days, Herceptin 1000 ng, alone or combined): 29.4%; DAPI Nuclei Count ([1]; 6 days, Herceptin 1000 ng, alone or combined, control 25958): 18274; growth inhibitory effect (FIG. 1A), in words [2]: neither agent had more than marginal effect; inhibition at 1 µM ([4]; MDA-MB-361, MDA-MB-361 cells, lapatinib experiment, Lapatinib 1000 nM): 22.1%; inhibition at 1 µM ([4]; MDA-MB-361, MDA-MB-361 cells, neratinib experiment, Neratinib 1000 nM): 43.6%; activation of heterodimer, in words [6]: does not activate; activation of heterodimer, in words [7]: specifically activates; activation of heterodimer, in words [8]: does not activate; activation of heterodimer, in words [9]: does not activate; activation of heterodimer, in words [10]: does not activate; activation of RXR homodimers, in words [11]: specifically activate
Cc1cc2c(cc1C1(c3ccc(C(=O)O)cn3)CC1)C(C)(C)CCC2(C)C [LGD268]																activation of one or more of PPAR/RXR, FXR/RXR, or LXR/RXR, in words [12]: activates
CS(=O)(=O)CCNCc1ccc(-c2ccc3ncnc(Nc4ccc(OCc5cccc(F)c5)c(Cl)c4)c3c2)o1 [Lapatinib, reference compound]	88.9		2211		58.8		1211		903		resistant	some small effect	> 1400	152	294	inhibition at 1 µM ([4]; MDA-MB-361 cells, lapatinib experiment, Lapatinib 1000 nM): 86.5%
CCOc1cc2ncc(C#N)c(Nc3ccc(OCc4ccccn4)c(Cl)c3)c2cc1NC(=O)/C=C/CN(C)C [Neratinib, reference compound]		86.5		903		91.8		180		249	resistant		> 100	7	20	inhibition at 1 µM ([4]; MDA-MB-361 cells, neratinib experiment, Neratinib 1000 nM): 95.3%
Cc1cc(Nc2ncnc3ccc(NC4=NC(C)(C)CO4)cc23)ccc1Oc1ccn2ncnc2c1 [Tucatinib]											resistant	some small effect	> 2000	22		

From patent US20240293349A1, “USE OF AN RXR AGONIST IN TREATING DRUG RESISTANT HER2+ CANCERS” (Io Therapeutics, Inc., priority 2022, published 2024)
